Data published in patent publication US6452009B1, “4-unsubstituted dihydroisoquinolinone derivatives and combinatorial libraries thereof” (Lion Bioscience AG, priority 1999, dated 2002).
Where two headings read alike, the source gives them in different places.

Tested on: Streptococcus pyogenes (ATCC #97-03 14289)
Experiment: Anti-microbial screen (growth inhibition, OD 570 nm)
Format: cell-based
Experimental: Streptococcus pyogenes (ATCC #97-03 14289) are grown in Todd Hewitt Broth (THB) (Difco Laboratories #0492-17-6) overnight until they reach an optical density of (OD=0.636@570 nm) by reading 0.1 ml in a 96 well microtiter plate in a Molecular Devices Thermomax. This preparation is kept frozen as stocks in 30% v/v glycerol in 1.5 ml aliquots at −70° C. until use. Prior to screening, 1.5 ml aliquots are thawed and diluted into 50 ml THB. 200 μl of this dilution is added to 92 wells of microtiter plate. To three wells THB (200 μl) is added to serve as a blank and a sterility control. Test compounds in DMSO and appropriate concentrations of DMSO are added to Growth/Solvent Controls at 0 time. Plates are read at 0 time at 570 nm in the Molecular Devices plate reader to obtain compounds correction factors for insoluble or colored compounds. Plates are read again at 4 hrs.
Compounds are assayed at a concentration of 170 μg/ml. Percent inhibition for each compound is calculated using the following formulae:
Color correct=(O.D. 0 hr −Blank 0 hr)—(Solvent Control 0 hr−Blank 0 hr)
% Inhibition=100−(O.D. test compound 4 hr−Blank 4 hr−color correct) divided by (O.D. growth/solvent control 4 hr−Blank 4 hr)

[1] = ATCC97, compounds assayed at 170 μg/ml, growth in Todd Hewitt Broth read at 570 nm at 4 hrs, read-out: % Inhibition

| SMILES | inhibition at 170 µg/mL [1] [%] | inhibition at 170 µg/mL (ATCC97, 4 h) [%] |
| --- | --- | --- |
| CN(C)CCCOc1ccc(C2Cc3ccc(NC(=O)Cc4cccc(C(F)(F)F)c4)cc3C(=O)N2CCC(=O)N(CC(N)=O)C2CC2)cc1 (stereo not drawn) | 99.9 |  |
| NC(=O)CN(Cc1ccccc1)C(=O)CCN1C(=O)c2cc(NC(=O)CCC3CCCC3)ccc2CC1c1cccc2ccccc12 (stereo not drawn) | 98.4 |  |
| CN(C)CCCOc1ccc(C2Cc3ccc(NC(=O)C4(c5ccccc5)CC4)cc3C(=O)N2Cc2ccc(C(=O)N(CC(N)=O)Cc3cccc(C(F)(F)F)c3)cc2)cc1 (stereo not drawn) | 98.8 |  |
| NC(=O)CN(Cc1cccc(C(F)(F)F)c1)C(=O)CCN1C(=O)c2cc(NC(=O)CC3CC4CCC3C4)ccc2CC1c1cccnc1 (stereo not drawn) | 99.2 |  |
| CN(C)CCN(CC(N)=O)C(=O)CCN1C(=O)c2cc(NC(=O)c3cnccn3)ccc2CC1c1cccc2ccccc12 (stereo not drawn) | 99 |  |
| CCOP(=O)(CC(=O)Nc1ccc2c(c1)C(=O)N(CCC(=O)N(CCN(C)C)CC(N)=O)C(c1ccc(C(F)(F)F)cc1)C2)OCC (stereo not drawn) |  | 98.9 |
| CN(C)CCCOc1ccc(C2Cc3ccc(NC(=O)CCC4CCCC4)cc3C(=O)N2CCC(=O)N(CCN(C)C)CC(N)=O)cc1 (stereo not drawn) | 98.6 |  |
| CN(C)CCN(CC(N)=O)C(=O)CCN1C(=O)c2cc(NC(=O)c3ccc(I)cc3)ccc2CC1c1ccc2ccccc2n1 (stereo not drawn) | 99.5 |  |
| CN(C)CCCOc1ccc(C2Cc3ccc(NC(=O)Cc4cccc(C(F)(F)F)c4)cc3C(=O)N2CCC(=O)N(CCN(C)C)CC(N)=O)cc1 (stereo not drawn) | 99.8 |  |
| Cc1cnc(C(=O)Nc2ccc3c(c2)C(=O)N(CCC(=O)N(CCN(C)C)CC(N)=O)C(c2ccc(C(C)(C)C)cc2)C3)cn1 (stereo not drawn) | 98.5 |  |
| Cc1cc(C)c(C(=O)C(=O)Nc2ccc3c(c2)C(=O)N(CCC(=O)N(CCN(C)C)CC(N)=O)C(c2ccc4ccccc4n2)C3)c(C)c1 (stereo not drawn) | 99.2 |  |
| CN(C)CCCOc1ccc(C2Cc3ccc(NC(=O)CCC4CCCC4)cc3C(=O)N2CCC(=O)N(CC(N)=O)C2CC2)cc1 (stereo not drawn) | 98.2 |  |
| CN(C)CCN(CC(N)=O)C(=O)c1ccc(CN2C(=O)c3cc(NC(=O)CCC4CCCC4)ccc3CC2c2ccc(C(F)(F)F)cc2)cc1 (stereo not drawn) | 99 |  |
| COc1cc(OC)cc(C2Cc3ccc(NC(=O)CCC4CCCC4)cc3C(=O)N2CCC(=O)N(CCN(C)C)CC(N)=O)c1 (stereo not drawn) | 99.5 |  |
| Cc1ccc(C2Cc3ccc(NC(=O)c4cc(C(F)(F)F)cc(C(F)(F)F)c4)cc3C(=O)N2CCC(=O)N(CCN(C)C)CC(N)=O)cc1 (stereo not drawn) | 99.2 |  |
| CN(C)CCCOc1ccc(C2Cc3ccc(NC(=O)c4cccc(C(F)(F)F)c4F)cc3C(=O)N2Cc2ccc(C(=O)N(CC(N)=O)Cc3cccc(C(F)(F)F)c3)cc2)cc1 (stereo not drawn) | 99.6 |  |
| CCCC(CCC)C(=O)Nc1ccc2c(c1)C(=O)N(CCC(=O)N(CCN(C)C)CC(N)=O)C(c1cc(OC)cc(OC)c1)C2 (stereo not drawn) | 98.2 |  |
| Cc1ccc(C2Cc3ccc(NC(=O)COc4ccc5ccccc5c4)cc3C(=O)N2CCC(=O)N(CCN(C)C)CC(N)=O)cc1 (stereo not drawn) | 99.2 |  |
| COc1ccc(Br)c(C(=O)Nc2ccc3c(c2)C(=O)N(Cc2ccc(C(=O)N(CC(N)=O)Cc4cccc(C(F)(F)F)c4)cc2)C(c2ccc(OCCCN(C)C)cc2)C3)c1 (stereo not drawn) | 99.4 |  |
| C=CCN(CC(N)=O)C(=O)CCN1C(=O)c2cc(NC(=O)CP(=O)(OCC)OCC)ccc2CC1c1cccc(Oc2ccc(Cl)c(Cl)c2)c1 (stereo not drawn) |  | 98.5 |
| COc1cc(OC)cc(C2Cc3ccc(NC(=O)c4ccc(F)c(F)c4)cc3C(=O)N2CCC(=O)N(CCN(C)C)CC(N)=O)c1 (stereo not drawn) | 99.5 |  |
| CN(C)CCN(CC(N)=O)C(=O)c1ccc(CN2C(=O)c3cc(NC(=O)CCC4CCCC4)ccc3CC2c2ccc3ccccc3n2)cc1 (stereo not drawn) | 98.6 |  |
| CN(C)CCN(CC(N)=O)C(=O)CCN1C(=O)c2cc(NC(=O)C3(c4ccccc4)CC3)ccc2CC1c1ccccc1 (stereo not drawn) | 99.5 |  |

| SMILES | inhibition at 170 µg/mL [1] [%] | inhibition at 170 µg/mL (ATCC97, 4 h) [%] |
| --- | --- | --- |
| CN(C)CCN(CC(N)=O)C(=O)CCN1C(=O)c2cc(NC(=O)c3ccc(C#N)cc3)ccc2CC1c1ccc(C(C)(C)C)cc1 (stereo not drawn) | 98.5 |  |
| COc1cc(OC)cc(C2Cc3ccc(NC(=O)CC(C)CC(C)(C)C)cc3C(=O)N2CCC(=O)N(CCN(C)C)CC(N)=O)c1 (stereo not drawn) | 99 |  |
| COc1cc(OC)cc(C2Cc3ccc(NC(=O)c4c(F)c(F)c(C)c(F)c4F)cc3C(=O)N2CCC(=O)N(CCN(C)C)CC(N)=O)c1 (stereo not drawn) | 98.2 |  |
| CCCN(CC(N)=O)C(=O)c1ccc(CN2C(=O)c3cc(NC(=O)c4ccc(OC(F)(F)F)cc4)ccc3CC2c2ccc(OCCCN(C)C)cc2)cc1 (stereo not drawn) | 99.7 |  |
| COc1cc(OC)cc(C2Cc3ccc(NC(=O)Cc4cccc(C(F)(F)F)c4)cc3C(=O)N2Cc2ccc(C(=O)N(CCN(C)C)CC(N)=O)cc2)c1 (stereo not drawn) | 99.2 |  |
| CN(C)CCN(CC(N)=O)C(=O)c1ccc(CN2C(=O)c3cc(NC(=O)c4cccc(C(F)(F)F)c4F)ccc3CC2c2ccccc2)cc1 (stereo not drawn) | 98.3 |  |
| CN(C)CCN(CC(N)=O)C(=O)CCN1C(=O)c2cc(NC(=O)C3(c4ccccc4)CC3)ccc2CC1c1cccc2ccccc12 (stereo not drawn) | 99 |  |
| CCCCCC/C=C/C(=O)Nc1ccc2c(c1)C(=O)N(CCC(=O)N(CCN(C)C)CC(N)=O)C(c1ccccc1)C2 (stereo not drawn) | 99.8 |  |
| Cc1cc(C)c(C(=O)C(=O)Nc2ccc3c(c2)C(=O)N(Cc2ccc(C(=O)N(CCN(C)C)CC(N)=O)cc2)C(c2ccc4ccccc4n2)C3)c(C)c1 (stereo not drawn) | 99.2 |  |
| CN(C)CCN(CC(N)=O)C(=O)c1ccc(CN2C(=O)c3cc(NC(=O)c4cc(C(F)(F)F)cc(C(F)(F)F)c4)ccc3CC2c2ncc[nH]2)cc1 (stereo not drawn) | 98.7 |  |
| CCCC(CCC)C(=O)Nc1ccc2c(c1)C(=O)N(Cc1ccc(C(=O)N(CCN(C)C)CC(N)=O)cc1)C(c1cc(OC)cc(OC)c1)C2 (stereo not drawn) | 99.3 |  |
| CC(CC(=O)Nc1ccc2c(c1)C(=O)N(Cc1ccc(C(=O)N(CCN(C)C)CC(N)=O)cc1)C(c1ccc(C(F)(F)F)cc1)C2)CC(C)(C)C (stereo not drawn) | 98.7 |  |
| CN(C)CCN(CC(N)=O)C(=O)CCN1C(=O)c2cc(NC(=O)CC3CCCC3)ccc2CC1c1ccc(C(C)(C)C)cc1 (stereo not drawn) | 99.5 |  |
| CN(C)CCCOc1ccc(C2Cc3ccc(NC(=O)c4cc(C(F)(F)F)cc(C(F)(F)F)c4)cc3C(=O)N2Cc2ccc(C(=O)N(CC(N)=O)C3CC3)cc2)cc1 (stereo not drawn) | 99.9 |  |
| CCCCCCCC(=O)Nc1ccc2c(c1)C(=O)N(CCC(=O)N(CC(N)=O)Cc1cccc(C(F)(F)F)c1)C(c1ccc(OCCCN(C)C)cc1)C2 (stereo not drawn) | 98.5 |  |
| COc1cccc(CN(CC(N)=O)C(=O)CCN2C(=O)c3cc(NC(=O)CC4CC5CCC4C5)ccc3CC2c2ccc(OCCCN(C)C)cc2)c1 (stereo not drawn) | 98.8 |  |
| CCCCCCCC(=O)Nc1ccc2c(c1)C(=O)N(CCC(=O)N(CCN(C)C)CC(N)=O)C(c1ccc(C)cc1)C2 (stereo not drawn) | 99.9 |  |
| CCCCCCCC(=O)Nc1ccc2c(c1)C(=O)N(CCC(=O)N(CCN(C)C)CC(N)=O)C(c1ccc(F)c(F)c1)C2 (stereo not drawn) | 98.4 |  |
| CN(C)CCCOc1ccc(C2Cc3ccc(NC(=O)CCC4CCCC4)cc3C(=O)N2Cc2ccc(C(=O)N(CC(N)=O)Cc3ccccc3)cc2)cc1 (stereo not drawn) | 99.5 |  |
| CN(C)CCCOc1ccc(C2Cc3ccc(NC(=O)c4ccc(I)cc4)cc3C(=O)N2CCC(=O)N(CCN(C)C)CC(N)=O)cc1 (stereo not drawn) | 99.8 |  |
| CN(C)CCN(CC(N)=O)C(=O)c1ccc(CN2C(=O)c3cc(NC(=O)/C=C/c4ccccc4C(F)(F)F)ccc3CC2c2ccc(F)c(F)c2)cc1 (stereo not drawn) | 98.4 |  |
| CSc1ccccc1C(=O)Nc1ccc2c(c1)C(=O)N(Cc1ccc(C(=O)N(CCN(C)C)CC(N)=O)cc1)C(c1ccc(C(F)(F)F)cc1)C2 (stereo not drawn) | 98.3 |  |
